Results: patent US7671061B2, “Methods and compositions for treating pain” (Hydra Biosciences, Inc., priority 2005, dated 2010)

The molecules below were run against T1, hTRPA1 (Homo sapiens, UniProt O75762, K186N) (assay: High throughput Ca2+ fluorescence (Fluo4) assay, AITC stimulation). Settings: Table 2; read-out: hTRPA1 Fluor IC50.
T1 construct: expressed in transfected cells; host or cells: HEK293/TREx (Invitrogen), induced with tetracycline
Format: cell-based
Procedure, shortened: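 Read-out is Fluo4 fluorescence, proportional to [Ca2+]i, over ~3 min after AITC challenge, following 2 min compound pre-exposure in HEK293/TREx cells induced with 1 μg/ml tetracycline. Dye: 1 μM, 60 min, room temperature.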

T1 sequence (O75762 whole entry K186N): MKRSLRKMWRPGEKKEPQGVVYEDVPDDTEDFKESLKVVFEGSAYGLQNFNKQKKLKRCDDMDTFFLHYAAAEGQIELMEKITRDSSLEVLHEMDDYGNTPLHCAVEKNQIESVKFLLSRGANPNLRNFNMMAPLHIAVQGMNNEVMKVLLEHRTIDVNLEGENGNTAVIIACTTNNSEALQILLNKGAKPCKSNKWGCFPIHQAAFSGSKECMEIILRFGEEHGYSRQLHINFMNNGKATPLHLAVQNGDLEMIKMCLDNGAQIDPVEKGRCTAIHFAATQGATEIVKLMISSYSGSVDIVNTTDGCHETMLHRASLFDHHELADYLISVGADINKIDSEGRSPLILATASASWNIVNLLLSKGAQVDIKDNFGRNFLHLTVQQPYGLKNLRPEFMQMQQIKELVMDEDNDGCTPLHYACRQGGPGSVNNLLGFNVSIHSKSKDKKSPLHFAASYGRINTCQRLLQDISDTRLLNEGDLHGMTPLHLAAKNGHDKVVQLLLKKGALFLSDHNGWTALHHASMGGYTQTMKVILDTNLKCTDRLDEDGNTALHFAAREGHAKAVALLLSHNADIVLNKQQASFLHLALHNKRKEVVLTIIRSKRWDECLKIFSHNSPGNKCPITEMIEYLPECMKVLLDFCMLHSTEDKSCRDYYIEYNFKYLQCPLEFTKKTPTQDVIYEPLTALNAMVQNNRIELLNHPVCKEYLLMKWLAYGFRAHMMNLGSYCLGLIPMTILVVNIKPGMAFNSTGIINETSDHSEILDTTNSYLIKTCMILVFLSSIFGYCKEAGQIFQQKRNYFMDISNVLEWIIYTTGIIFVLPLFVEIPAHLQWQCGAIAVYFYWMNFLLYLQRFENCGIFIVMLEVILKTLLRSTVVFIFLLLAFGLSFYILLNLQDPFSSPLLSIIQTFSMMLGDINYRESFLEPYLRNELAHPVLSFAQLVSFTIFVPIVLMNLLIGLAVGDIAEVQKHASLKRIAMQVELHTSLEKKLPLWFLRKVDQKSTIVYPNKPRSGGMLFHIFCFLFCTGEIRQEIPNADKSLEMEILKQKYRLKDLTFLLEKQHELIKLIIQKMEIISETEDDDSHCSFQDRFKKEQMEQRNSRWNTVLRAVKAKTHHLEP

IC50 [µM]	SMILES
> 10	Cn1c(=O)c2c(ncn2CC(=O)Nc2ccccn2)n(C)c1=O [Compound 369]
> 10	Cc1ccnc(NC(=O)Cn2cnc3c2c(=O)n(C)c(=O)n3C)c1 [Compound 370]
≥ 30	Cc1ccc(NC(=O)Cn2cnc3c2c(=O)n(C)c(=O)n3C)nc1 [Compound 372]
> 10	COc1ccc(C)cc1NC(=O)Cn1cnc2c1c(=O)n(C)c(=O)n2C [Compound 373]
≥ 20	Cc1ccc(Cl)cc1NC(=O)Cn1cnc2c1c(=O)n(C)c(=O)n2C [Compound 374]
> 10	Cn1c(=O)c2c(ncn2CC(=O)NCc2ccc3c(c2)OCO3)n(C)c1=O [Compound 377]
> 10	CC(CCc1ccccc1)NC(=O)Cn1cnc2c1c(=O)n(C)c(=O)n2C (centres unmarked) [Compound 379]
> 10	CC(=O)c1cccc(NC(=O)Cn2cnc3c2c(=O)n(C)c(=O)n3C)c1 [Compound 380]
> 10	CCc1cccc(CC)c1NC(=O)Cn1cnc2c1c(=O)n(C)c(=O)n2C [Compound 383]

More lines, now with the values behind:

SMILES	IC50 [µM]
Cc1cc(C)c(NC(=O)Cn2cnc3c2c(=O)n(C)c(=O)n3C)c(C)c1 [Compound 375]	> 10
CCCC(C)NC(=O)Cn1cnc2c1c(=O)n(C)c(=O)n2C (centres unmarked) [Compound 376]	> 10
COC(=O)C(CC(C)C)NC(=O)Cn1cnc2c1c(=O)n(C)c(=O)n2C (centres unmarked) [Compound 378]	> 10
CCc1sc(NC(=O)Cn2cnc3c2c(=O)n(C)c(=O)n3C)nc1-c1ccccc1 [Compound 381]	≤ 10
CCC(C)(C)NC(=O)Cn1cnc2c1c(=O)n(C)c(=O)n2C [Compound 382]	> 10
Cn1c(=O)c2c(ncn2CC(=O)Nc2ccccc2Sc2ccccc2)n(C)c1=O [Compound 384]	≤ 10
CC(C)NC(=O)c1ccccc1NC(=O)Cn1cnc2c1c(=O)n(C)c(=O)n2C [Compound 385]	> 10
Cn1c(=O)c2c(ncn2CC(=O)Nc2cc(F)cc(F)c2)n(C)c1=O [Compound 386]	≤ 5

The molecules below were run against T1, hTRPA1 (assay: TRPA1 patch clamp (perforated patch, AITC-activated current)). Settings: Table 1; read-out: hTRPA1 Patch IC50.
Format: cell-based
From the text: Patch clamp experiments permit the detection of currents through the TRPA1 channel in the cell line described above. To permit recording of current at a stable level and prevent the “rundown” observed by other labs, it is necessary to use the perforated patch technique, which prevents dialysis of the cytoplasm with the pipette solution. In normal whole-cell patch clamp recordings, a glass electrode is brought into contact with a single cell and a high-resistance (gigaohm) seal is established with the cell membrane. The membrane is then ruptured to achieve the whole-cell configuration, permitting control of the voltage of the cell membrane and measurement of currents flowing across the membrane using the amplifier attached to the electrode and resulting in the replacement of cytoplasm with the pipette solution. In contrast, in the perforated patch mode, an antibiotic, amphotericin, is present in the pipette solution and diffuses into contact with the cell after the seal is achieved, over the course of several minutes. The amphotericin forms ion-permeable pores in the membrane under the pipette, permitting passage of some ions but maintaining most native cytosolic components. A perfusion system permits control of the extracellular solution, including the addition of blockers and activators of the current. The current can be activated by addition of 5 μM AITC to the solution. […] In some cases, cells were grown in low density overnight on glass coverslips. Patch clamp recordings were made in the whole-cell mode with a holding potential of −40 mV. Every 5 seconds, a voltage ramp was applied from −120 to +100 mV, 400 ms in duration. Currents elicited were quantified at −80 mV and +80 mV. […] The external solution consisted of 150 mM NaCl, 4.5 mM KCl, 3 mM MgCl2, 10 mM HEPES, […], 1 mM EGTA, pH 7.4. Upon addition of AITC, TRPA1 current was induced only in TRPA1-expressing cells and not in parental HEK293 TREx cells. Removal of the AITC stimulus causes most of the current to go away. Potential blockers were tested for ability to block both inward and outward currents in the continued presence of AITC.

IC50 [nM]	SMILES
≤ 10000	COC(=O)C1=C(c2ccccc2)NC(=S)NC1c1ccc(OC)c(OC)c1 (centres unmarked)

Same assay, conditions: Table 2; inward current; read-out: hTRPA1 Patch Inwd IC50

IC50 [nM]	SMILES
> 10000	Cn1c(=O)c2c(ncn2CC(=O)NCc2ccccc2Cl)n(C)c1=O [Compound 236]
≤ 5000	COc1ccc(Cl)cc1NC(=O)Cn1cnc2c1c(=O)n(C)c(=O)n2C [Compound 285]
> 10000	Cn1c(=O)c2c(ncn2CC(=O)NCCc2ccc(S(N)(=O)=O)cc2)n(C)c1=O [Compound 389]
> 10000	CC(C)c1ccc(N(C)C(=O)Cn2cnc3c2c(=O)n(C)c(=O)n3C)cc1 [Compound 393, 2-(1,3-dimethyl-2,6-dioxo-1,2,3,6-tetrahydropurin-7-yl)-N-(4-isopropylphenyl)-N-methylacetamide]
≤ 1000	Cn1c(=O)c2c(ncn2CC(=O)NCCc2ccc(Cl)c(Cl)c2)n(C)c1=O [Compound 396, N-[2-(3,4-Dichlorophenyl)-ethyl]-2-(1,3-dimethyl-2,6-dioxo-1,2,3,6-tetrahydro-purin-7-yl)-acetamide]
≤ 5000	CN(C)c1ccc(CCNC(=O)Cn2cnc3c2c(=O)n(C)c(=O)n3C)cc1 [Compound 397, N-[2-(4-Dimethylaminophenyl)-ethyl]-2-(1,3-dimethyl-2,6-dioxo-1,2,3,6-tetrahydropurin-7-yl)-acetamide]
≤ 1000	Cc1ccc(CCNC(=O)Cn2cnc3c2c(=O)n(C)c(=O)n3C)cc1 [Compound 400, 2-(1,3-Dimethyl-2,6-dioxo-1,2,3,6-tetrahydro-purin-7-yl)-N-(2-p-tolyl-ethyl)-acetamide]
≤ 5000	COc1ccc(CCCNC(=O)Cn2cnc3c2c(=O)n(C)c(=O)n3C)cc1 [Compound 401, 2-(1,3-Dimethyl-2,6-dioxo-1,2,3,6-tetrahydropurin-7-yl)-N-[3-(4-methoxy-phenyl)-propyl]-acetamide]
≤ 5000	Cn1c(=O)c2c(ncn2CC(=O)Nc2ccc(C(C)(C)O)cc2)n(C)c1=O [Compound 402, 2-(1,3-dimethyl-2,6-dioxo-1,2,3,6-tetrahydropurin-7-yl)-N-(4-(2-hydroxypropan-2-yl)phenyl)acetamide]
> 10000	COc1ccccc1CCNC(=O)Cn1cnc2c1c(=O)n(C)c(=O)n2C [Compound 403, N-(2-methoxyphenethyl)-2-(1,3-dimethyl-2,6-dioxo-1,2,3,6-tetrahydropurin-7-yl)acetamide]
≤ 1000	Cn1c(=O)c2c(ncn2CC(=O)NCCc2ccccc2F)n(C)c1=O [Compound 404, N-(2-fluorophenethyl)-2-(1,3-dimethyl-2,6-dioxo-1,2,3,6-tetrahydropurin-7-yl)acetamide]
≤ 10000	Cn1c(=O)c2c(ncn2CC(=O)NCCc2ccccc2Cl)n(C)c1=O [Compound 405, N-(2-chlorophenethyl)-2-(1,3-dimethyl-2,6-dioxo-1,2,3,6-tetrahydropurin-7-yl)acetamide]
≤ 10000	Cc1ccccc1CCNC(=O)Cn1cnc2c1c(=O)n(C)c(=O)n2C [Compound 406, N-(2-methylphenethyl)-2-(1,3-dimethyl-2,6-dioxo-1,2,3,6-tetrahydropurin-7-yl)acetamide]

Further lines, the molecule ahead of its results:

SMILES	IC50 [nM]
Cn1c(=O)c2c(ncn2CC(=O)Nc2ccc3c(c2)CCC3)n(C)c1=O [Compound 240]	≤ 5000
CC(C)c1ccc(NC(=O)C(C)(C)n2cnc3c2c(=O)n(C)c(=O)n3C)cc1 [Compound 387, 2-(1,3-dimethyl-2,6-dioxo-1,2,3,6-tetrahydropurin-7-yl)-N-(4-isopropylphenyl)-2-methylpropanamide]	> 10000
CC(C)c1ccc(NC(=O)Cn2cnc3c2c(=O)[nH]c(=O)n3C)cc1 [Compound 388, N-(4-isopropylphenyl)-2-(3-methyl-2,6-dioxo-1,2,3,6-tetrahydropurin-7-yl)acetamide]	> 10000
CC(C)c1ccc(NC(=O)Cn2cnc3[nH]c(=O)n(C)c(=O)c32)cc1 [Compound 391, N-(4-isopropylphenyl)-2-(1-methyl-2,6-dioxo-1,2,3,6-tetrahydropurin-7-yl)acetamide]	≤ 10000
CC(C)c1ccc(N(C)C(=O)Cn2cnc3[nH]c(=O)n(C)c(=O)c32)cc1 [Compound 392, N-(4-isopropylphenyl)-N-methyl-2-(1-methyl-2,6-dioxo-1,2,3,6-tetrahydropurin-7-yl)acetamide]	> 10000
Cn1c(=O)[nH]c(=O)c2c1ncn2CC(=O)Nc1ccc(C2CCCC2)cc1 [Compound 394, N-(4-cyclopentylphenyl)-2-(3-methyl-2,6-dioxo-1,2,3,6-tetrahydropurin-7-yl)acetamide]	≤ 5000
Cn1c(=O)c2c(ncn2CC(=O)Nc2ccc(C3CCCC3)cc2)n(C)c1=O [Compound 395, N-(4-cyclopentylphenyl)-2-(1,3-dimethyl-2,6-dioxo-1,2,3,6-tetrahydropurin-7-yl)acetamide]	≤ 500
Cn1c(=O)c2c(ncn2CC(=O)Nc2ccccc2C2CCCC2)n(C)c1=O [Compound 398, N-(2-cyclopentylphenyl)-2-(1,3-dimethyl-2,6-dioxo-1,2,3,6-tetrahydropurin-7-yl)acetamide]	≤ 10000
CC(C)c1ccc(NC(=O)Cn2cnc3[nH]c(=O)[nH]c(=O)c32)cc1 [Compound 399, 2-(2,6-dioxo-1,2,3,6-tetrahydropurin-7-yl)-N-(4-isopropylphenyl)acetamide]	≤ 10000

Same assay, conditions: hTRPA1 Patch Inwd IC50 (nM), Table 2; inward current

SMILES	IC50 [nM]
COc1ccc(CCNC(=O)Cn2cnc3c2c(=O)n(C)c(=O)n3C)cc1OC [Compound 390]	≤ 10000
